Reference: US20250235486A1, “Method of Producing Insulin-Producing Cells” (Monash University, priority 2022, published 2025)

Assays:
Format in all cases: cell-based
[1] = tested on: Human pancreatic ductal epithelial cells; assay: qRT-PCR after 2- and 7-day EZH2 inhibitor stimulation of human pancreatic ductal epithelial cells; conditions: GSK-126 10 μM
Experimental: Human pancreatic ductal epithelial cells were purchased from AddexBio and cultured according to the recommended protocols. Cells were cultured in complete Keratinocyte Serum-Free Media (supplemented with human recombinant EGF, Bovine Pituitary Extract and Antibiotic-Antimycotic [Gibco]. All cell cultures were grown and maintained in a 37° C., 5% C02 environment using a tissue culture incubator. Once cells reached 70-80% confluency, passaging was performed using 0.05% Trypsin EDTA (Sigma). […] Vehicle control was DMSO. Cells were treated over 2 main timepoints, with harvests occurring following 2, and 7 days. For the 2-day time point, cells were seeded and left to adhere in plates for 24 hours. Treatment was initiated with the first dose made up in complete K-SFM. The second dose was delivered 24 hours later following a media change. For the longer period of 7 days, cells were initially seeded in 10 cm plates, with doses delivered on alternate days following the initial period of 24 hours. […] Ct values of experimental genes were normalized to housekeeping gene [MUT]. Fold change of mRNA abundance was calculated by normalizing drug treated values to vehicular controls. […] RNA was isolated using the RNeasy Kit according to the manufacturer's directions. Following measurement of RNA concentration using a QIAxpert System, 1 μg of RNA was used for cDNA synthesis by a high-capacity cDNA Reverse Transcription Kit (Applied Biosystems). The resulting cDNA reaction mix was diluted 1:6 to make up the final template cDNA used subsequently. […] Ct values of experimental genes were normalized to housekeeping gene [MUT]. Fold change of mRNA abundance was calculated by normalizing drug treated values to vehicular controls.

[2] = tested on: Human immortalised ductal cell line; assay: qRT-PCR gene expression in human immortalised ductal cell line; conditions: ursolic acid 1, 2.5 or 5 μM; GSK126 5, 10 or 20 μM
Experimental: Human immortalised ductal cell line (Catalog #: T0018001, Addexbio) was cultured and assayed in Keratinocyte SFM (serum-free medium) (Catalog number 17005042, ThermoFisher Scientific, USA). Pharmacological inhibition of EZH2 and gene expression analysis were performed as described in Example 1.

[3] = tested on: marmoset exocrine (acinar and ductal) cells; assay: qRT-PCR gene expression in marmoset exocrine (acinar and ductal) cells; conditions: 48 hours: GSK126 10 μM, ursolic acid 5 μM
Experimental: (§1) Exocrine cells from a non-diabetic human and a marmoset were cultured and assayed in Miami/CMRL medium. The human exocrine cells were sourced from the Islet Transplant Unit of St Vincent's Institute for Medical Research. The marmoset exocrine cells were sourced from the Australian Regenerative Medicine Institute (ARMI), Monash University. Miami media is based on CMRL 1066 media (Connaught Medical Research Lab) supplemented with: Insulin, Transferrin & Selenium (ITS), human serum, Vitamin E, sodium pyruvate, zinc and HEPES. Pharmacological inhibition of EZH2 and gene expression analysis were performed as described in Example 1.

[4] = tested on: human exocrine (acinar and ductal) cells; assay: qRT-PCR gene expression in human exocrine (acinar and ductal) cells from a non-diabetic donor; conditions: 48 hours: GSK126 10 μM, CPI-1205 5 μM, ursolic acid 5 μM, GSK343 5 μM, EPZ-6438 5 μM
Experimental: as §1

[5] = tested on: Human pancreatic ductal epithelial cells; assay: Glucose stimulated insulin secretion assay (ELISA)
Experimental: 5×10^5 cells were seeded in 12-well plates and allowed to adhere for 24 hours. […] Next, cells were cultured in 28 mM (High) glucose Krebs Buffer solution and incubated for 1 hour to obtain the glucose stimulated insulin secretion. Supernatant was collected and Ultrasensitive Insulin ELISA (Mercodia) was used to determine the concentration of insulin according to manufacturer's instructions. Fold change of insulin secreted by cells were calculated by adjusting to cells stimulated with EZH2 inhibitors for insulin concentrations compared to control.

[6] = 2 days, EPZ6438 1 μM, Triptolide 20 nM
[7] = 7 days, EPZ6438 1 μM, Triptolide 20 nM

CC[C@H](C)n1cc(C)c2c(C(=O)NCc3c(C)cc(C)[nH]c3=O)cc(-c3ccc(N4CCNCC4)nc3)cc21 [GSK126, N-[(1,2-Dihydro-4,6-dimethyl-2-oxo-3-pyridinyl)methyl]-3-methyl-1-[(1S)-1-methylpropyl]-6-[6-(1-piperazinyl)-3-pyridinyl]-1H-indole-4-carboxamide]
MAFA mRNA levels ([1]; 2-day point, Triptolide 20 nM): increased in a statistically significant manner
Alpha-amylase (AMY2A) transcripts ([1]; 2 days): increased significantly
CK19 expression [1, 6]: statistically significant decreases
NGN3 mRNA levels [1, 6]: significantly elevated
insulin transcripts, mature mRNA (INS) [1, 6]: elevations
insulin transcripts, unprocessed heterogenous nuclear form (INS hnRNA) [1, 6]: elevations
NGN3 mRNA levels [1, 7]: Further increases
insulin transcripts, mature mRNA (INS) [1, 7]: even further increases
insulin transcripts, unprocessed heterogenous nuclear form (INS hnRNA) [1, 7]: even further increases
Insulin mRNA expression [2]: stimulated expression
Ngn3 mRNA expression [2]: stimulated expression
Pdx1 mRNA expression [2]: stimulated expression
Insulin mRNA expression [3]: stimulated expression
Pdx1 mRNA expression [3]: stimulated expression
mRNA expression of Insulin, Pdx1 and Ngn3 [4]: stimulated expression of one, two or all of Insulin, Pdx1 and Ngn3
insulin concentration after incubation in high-glucose media (28 mM glucose, 1 hour) ([5]; 2-day stimulation (FIG. 13d), GSK126 10 μM, EPZ6438 1 μM, Triptolide 20 nM, not observed in DMSO control): significant elevations
Release of insulin (glucose stimulated) ([5]; 7 days stimulation (FIG. 13e)): maintained
